Data as given in US12439920B2, “Pyridine n-oxide compound and pest control agent” (Nippon Soda Co., Ltd., priority 2019, dated 2025).

Assays:
Type in all cases: in vivo
Plutella xylostella [1] = assay: Test of efficacy on Plutella xylostella (cabbage leaf dip); details: 125 ppm; cabbage leaves dipped 30 seconds; second instar larvae; after 3 days
Procedure: 5 parts of the compound of the present invention, 93.6 parts of dimethylformamide, and 1.4 parts of polyoxyethylene alkyl aryl ether were mixed and dissolved to prepare emulsion (I) containing 5% of the active ingredient. An insecticidal rate was calculated according to the following expression: Insecticidal rate (%)=(The number of dead insects/The number of tested insects)×100 A control rate was calculated according to the following expression: Control rate (%)={1−(Nt)/(Nc)}×100 • Nc: The number of parasites in an untreated plot • Nt: The number of parasites in a spray treated plot The emulsion (I) was diluted with water such that the concentration of the compound of the present invention was 125 ppm. Cabbage leaves were dipped in the dilution for 30 seconds. The resulting cabbage leaves were placed in a petri dish. Five second instar larvae of Plutella xylostella were released thereto. The petri dish was placed in a thermostat chamber having a temperature of 25° C. and a humidity of 60%. Life and death were determined after 3 days from the release of the insects, and the insecticidal rate was calculated. The test was conducted in duplicate.

[2] = system: Phyllotreta striolata adults; assay: Test of efficacy on Phyllotreta striolata (spray on Qing geng cai seedlings); details: 125 ppm, sprayed on Qing geng cai seedlings, after 7 days
Procedure: (§1) 5 parts of the compound of the present invention, 93.6 parts of dimethylformamide, and 1.4 parts of polyoxyethylene alkyl aryl ether were mixed and dissolved to prepare emulsion (I) containing 5% of the active ingredient.
(§2) An insecticidal rate was calculated according to the following expression: Insecticidal rate (%)=(The number of dead insects/The number of tested insects)×100 A control rate was calculated according to the following expression: Control rate (%)={1−(Nt)/(Nc)}×100 • Nc: The number of parasites in an untreated plot • Nt: The number of parasites in a spray treated plot
The emulsion (I) was diluted with water such that the concentration of the compound of the present invention was 125 ppm to prepare a test chemical. The dilution was sprayed to Qing geng cai seedlings (at the seventh true leaf stage) planted in 10-cm pots. The Qing geng cai seedlings were dried in air and then placed in a plastic cup. Ten Phyllotreta striolata adults were released thereto. The plastic cup was stored in a thermostat chamber having a temperature of 25° C. and a humidity of 65%. Life and death were determined after 7 days from the release of the insects, and the insecticidal rate was calculated. The test was conducted in duplicate.

Mythimna separata = assay: Test of efficacy on Mythimna separata (treated artificial feed); details: second instar larvae, 1 μl of emulsion (I) (5% active ingredient) in 0.8 g artificial feed, fifth day, 25° C.
Procedure: 5 parts of the compound of the present invention, 93.6 parts of dimethylformamide, and 1.4 parts of polyoxyethylene alkyl aryl ether were mixed and dissolved to prepare emulsion (I) containing 5% of the active ingredient. For a control, 93.6 parts of dimethylformamide and 1.4 parts of polyoxyethylene alkyl aryl ether were mixed and dissolved to prepare emulsion (II). An insecticidal rate was calculated according to the following expression: Insecticidal rate (%)=(The number of dead insects/The number of tested insects)×100 A control rate was calculated according to the following expression: Control rate (%)={1−(Nt)/(Nc)}×100 • Nc: The number of parasites in an untreated plot • Nt: The number of parasites in a spray treated plot 0.8 g of commercially available artificial feed (Insecta LFS, manufactured by Nosan Corp.) and 1 μl of the emulsion (I) were well mixed to obtain test feed. A plastic test container (capacity: 1.4 ml) was packed with 0.2 g of the test feed per treatment plot. Then, two second instar larvae of Mythimna separata were inoculated to each treatment plot. A plastic lid was put on the test container so as to prevent escape of the second instar larvae of Mythimna separata. The container was placed in a thermostat chamber of 25° C. On the fifth day, the insecticidal rate and the food intake were examined. The test was conducted in duplicate. […]

Plutella xylostella [3] = assay: Test of soil irrigation treatment against Plutella xylostella; details: investigated after 3 days; for Control rate % 21 days after: first instar larvae inoculated 21 days after transplant; for Control rate % 28 days after: first instar larvae inoculated 28 days after transplant
Procedure: 5 parts of the compound of the present invention, 93.6 parts of dimethylformamide, and 1.4 parts of polyoxyethylene alkyl aryl ether were mixed and dissolved to prepare emulsion (I) containing 5% of the active ingredient. An insecticidal rate was calculated according to the following expression: Insecticidal rate (%)=(The number of dead insects/The number of tested insects)×100 A control rate was calculated according to the following expression: Control rate (%)={1−(Nt)/(Nc)}×100 • Nc: The number of parasites in an untreated plot • Nt: The number of parasites in a spray treated plot The emulsion (I) was diluted with water such that the concentration of the compound of the present invention was 500 ppm or 250 ppm. Then, 500 mL of the dilution was subjected to irrigation treatment per 128-hole cell tray in which cabbage seedlings were planted. The cell seedlings were transplanted to No. 4 pots and maintained in a thermostat chamber having a temperature of 25° C. and a humidity of 65%. Then, 50 first instar larvae of Plutella xylostella were inoculated on the whole of a cabbage after 21 days and 28 days from the transplant, respectively. The life and the death of Plutella xylostella were investigated after 3 days, and a control rate was calculated according to the following expression. The test was conducted in quadruplicate. Control rate (%)={1−(Nt)/(Nc)}×100 • Nc: The number of parasites in an untreated plot • Nt: The number of parasites in a spray treated plot

Aphis gossypii = assay: Test of efficacy on Aphis gossypii (spray on cucumbers); details: 125 ppm; sprayed; first instar larvae on cucumbers; after 5 days
Procedure: 5 parts of the compound of the present invention, 93.6 parts of dimethylformamide, and 1.4 parts of polyoxyethylene alkyl aryl ether were mixed and dissolved to prepare emulsion (I) containing 5% of the active ingredient. An insecticidal rate was calculated according to the following expression: Insecticidal rate (%)=(The number of dead insects/The number of tested insects)×100 A control rate was calculated according to the following expression: Control rate (%)={1−(Nt)/(Nc)}×100 • Nc: The number of parasites in an untreated plot • Nt: The number of parasites in a spray treated plot Cucumbers were sown in a 10-cm pot. An Aphis gossypii female adult was released to the cucumbers after 10 days from sprouting. On the next day, born first instar larvae were left, and the female adult was removed. Emulsion (I) was diluted with water such that the concentration of the compound of the present invention was 125 ppm. The dilution was sprayed to the cucumbers. The cucumbers were placed in a thermostat chamber having a temperature of 25° C. and a humidity of 60%. Life and death of Aphis gossypii were determined after 5 days, and the insecticidal rate was calculated.

Musca domestica = assay: Test of efficacy on Musca domestica (treated lump sugar); details: 100 ppm on lump sugar; female adults; after 24 hours
Procedure: as §2
The compound of the present invention was diluted with acetone, and the dilution was added dropwise to 1 g of lump sugar such that the concentration was 100 ppm. The lump sugar was placed in a plastic cup, ten Musca domestica female adults were released, and a lid was put on the cup. The plastic cup was stored at 25° C. Life and death were determined after 24 hours from the release of the insects, and the insecticidal rate was calculated. The test was conducted in duplicate.

Aphis craccivora = assay: Test of efficacy on Aphis craccivora (spray on black-eyed peas); details: 125 ppm; sprayed; nymphs on black-eyed peas; after 4 days
Procedure: as §1, §2
Seedlings of black-eyed peas were raised in 10-cm pots. Aphis craccivora nymphs were inoculated onto primary leaves. The emulsion (I) was diluted with water such that the concentration of the compound of the present invention was 125 ppm. The dilution was sprayed to the black-eyed peas parasitized by the Aphis craccivora nymphs. The black-eyed peas were placed in a thermostat chamber having a temperature of 25° C. and a humidity of 60%. Life and death of Aphis craccivora were determined after 4 days from the spraying, and the insecticidal rate was calculated. The test was conducted in duplicate.

[4] = 250 ppm soil irrigation of cabbage seedlings
[5] = 500 ppm soil irrigation of cabbage seedlings

## CCS(=O)(=O)c1cc(C2CC2)c[n+]([O-])c1-c1nc2cc(S(=O)(=O)C(F)(F)F)ccc2o1 [A-1, 5-cyclopropyl-3-(ethylsulfonyl)-2-(5-((trifluoromethyl)sulfonyl)benzo[d]oxazol-2-yl)pyridine 1-oxide]
Plutella xylostella [1]
  insecticidal rate: ≥ 80%
[2]
  insecticidal rate: ≥ 80%
Mythimna separata; stated as alternative to food intake ('or')
  insecticidal rate: 100%
Mythimna separata; stated as alternative to insecticidal rate ('or')
  food intake as compared with the control plot: ≤ 10%
Plutella xylostella [3]; [4]
  Control rate % 21 days after: 98%
  Control rate % 28 days after: 99%
Plutella xylostella [3]; [5]
  Control rate % 21 days after: 100%
  Control rate % 28 days after: 100%
Aphis gossypii
  insecticidal rate: ≥ 80%
Musca domestica
  insecticidal rate: ≥ 80%
Aphis craccivora
  insecticidal rate: ≥ 80%
